Measurements as given in publication PMC7827406, “Structure–Activity Relationship (SAR) Study of Spautin-1 to Entail the Discovery of Novel NEK4 Inhibitors” (International Journal of Molecular Sciences, 2021).
Read-outs that look alike come from different tables or passages of the source.

Columns and labels:
Assay in all cases: biochemical
Set-up in all cases: Eurofins KinaseProfiler full panel at Km ATP, residual kinase activity (%) relative to DMSO
PKCδ(h) = target: T1, PKCδ(h) (Homo sapiens, UniProt Q05655)
T1 construct: gene PRKCD
T1 sequence (Q05655 whole entry): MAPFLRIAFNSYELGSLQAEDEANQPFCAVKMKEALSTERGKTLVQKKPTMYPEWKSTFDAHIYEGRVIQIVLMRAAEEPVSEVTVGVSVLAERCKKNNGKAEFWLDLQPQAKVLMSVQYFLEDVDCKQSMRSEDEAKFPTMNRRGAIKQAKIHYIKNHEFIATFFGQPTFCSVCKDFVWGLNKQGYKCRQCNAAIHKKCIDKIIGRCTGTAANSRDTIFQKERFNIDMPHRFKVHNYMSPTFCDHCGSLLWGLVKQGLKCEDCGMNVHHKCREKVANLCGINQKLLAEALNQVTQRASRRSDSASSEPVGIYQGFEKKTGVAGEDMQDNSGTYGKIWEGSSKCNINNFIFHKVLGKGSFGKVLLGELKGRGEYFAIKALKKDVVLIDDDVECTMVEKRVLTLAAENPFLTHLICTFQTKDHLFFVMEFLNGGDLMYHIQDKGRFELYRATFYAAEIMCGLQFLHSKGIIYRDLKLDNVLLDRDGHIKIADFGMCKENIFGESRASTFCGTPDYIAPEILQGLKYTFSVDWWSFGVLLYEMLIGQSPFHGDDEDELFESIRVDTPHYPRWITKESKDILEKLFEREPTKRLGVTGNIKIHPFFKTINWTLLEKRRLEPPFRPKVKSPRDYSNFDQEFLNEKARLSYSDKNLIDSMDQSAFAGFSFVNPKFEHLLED
Experimental: (§1) Eurofins performed a “Full KP Panel [Km ATP], KinaseProfile” which contains 429 radiometric kinase activity assays. The remaining kinase activity (%) was determined after treatment with the compounds at a concentration of 10 µM (Cfr. supporting information). Since we could not confirm the interaction between Spautin-1 analogues and USP13, a kinase screening was performed using a set of four compounds (Spautin-1 and three analogues) to discover off-targets and identify kinases that are potentially responsible for the reduction in cell viability observed in our screen (Table 2). The KINOMEscan from Eurofins was performed (see Table S1). This screen consists of a competitive binding assay in which the DNA-tagged kinase is incubated with one of the compounds in the presence of immobilized active site binding ligands. Binding of the compounds to the kinase hampers the binding of the kinase to the ligands and this inhibition was quantified by qPCR. The residual kinase activity, which represents the percentage of kinase attached to the immobilized ligands, was determined for 428 kinases at a standard screening concentration of 10 µM of the compounds dissolved in DMSO [61].

CK2α2(h) = target: T2, CK2α2(h) (Homo sapiens, UniProt P19784)
T2 construct: gene CSNK2A2
T2 sequence (P19784 whole entry): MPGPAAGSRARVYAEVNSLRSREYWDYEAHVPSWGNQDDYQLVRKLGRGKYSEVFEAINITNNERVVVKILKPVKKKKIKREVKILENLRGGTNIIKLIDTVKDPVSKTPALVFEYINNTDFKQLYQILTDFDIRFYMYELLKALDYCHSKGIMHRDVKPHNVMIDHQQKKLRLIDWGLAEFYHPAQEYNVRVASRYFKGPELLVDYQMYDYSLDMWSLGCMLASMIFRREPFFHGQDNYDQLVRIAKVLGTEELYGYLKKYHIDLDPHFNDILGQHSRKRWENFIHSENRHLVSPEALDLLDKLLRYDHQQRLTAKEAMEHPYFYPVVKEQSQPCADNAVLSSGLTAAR
Experimental: as §1

CaMKIV(h) = target: T3, CaMKIV(h) (Homo sapiens, UniProt Q16566)
T3 construct: gene CAMK4
T3 sequence (Q16566 1-473): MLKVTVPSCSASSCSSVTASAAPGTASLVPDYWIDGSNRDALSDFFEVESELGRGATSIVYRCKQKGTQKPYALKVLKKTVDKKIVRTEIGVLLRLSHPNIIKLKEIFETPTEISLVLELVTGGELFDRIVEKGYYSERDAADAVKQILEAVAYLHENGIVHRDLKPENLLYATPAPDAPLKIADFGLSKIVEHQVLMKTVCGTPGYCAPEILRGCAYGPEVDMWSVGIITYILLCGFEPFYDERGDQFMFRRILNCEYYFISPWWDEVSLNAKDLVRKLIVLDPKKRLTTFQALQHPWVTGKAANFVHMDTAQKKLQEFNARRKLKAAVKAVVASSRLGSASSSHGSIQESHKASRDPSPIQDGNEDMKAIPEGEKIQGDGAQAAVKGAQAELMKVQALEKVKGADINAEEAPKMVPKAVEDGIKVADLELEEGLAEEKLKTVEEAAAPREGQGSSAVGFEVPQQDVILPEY
Experimental: as §1

EphB1(h) = target: T4, EphB1(h) (Homo sapiens, UniProt P54762)
T4 sequence (P54762 1-984): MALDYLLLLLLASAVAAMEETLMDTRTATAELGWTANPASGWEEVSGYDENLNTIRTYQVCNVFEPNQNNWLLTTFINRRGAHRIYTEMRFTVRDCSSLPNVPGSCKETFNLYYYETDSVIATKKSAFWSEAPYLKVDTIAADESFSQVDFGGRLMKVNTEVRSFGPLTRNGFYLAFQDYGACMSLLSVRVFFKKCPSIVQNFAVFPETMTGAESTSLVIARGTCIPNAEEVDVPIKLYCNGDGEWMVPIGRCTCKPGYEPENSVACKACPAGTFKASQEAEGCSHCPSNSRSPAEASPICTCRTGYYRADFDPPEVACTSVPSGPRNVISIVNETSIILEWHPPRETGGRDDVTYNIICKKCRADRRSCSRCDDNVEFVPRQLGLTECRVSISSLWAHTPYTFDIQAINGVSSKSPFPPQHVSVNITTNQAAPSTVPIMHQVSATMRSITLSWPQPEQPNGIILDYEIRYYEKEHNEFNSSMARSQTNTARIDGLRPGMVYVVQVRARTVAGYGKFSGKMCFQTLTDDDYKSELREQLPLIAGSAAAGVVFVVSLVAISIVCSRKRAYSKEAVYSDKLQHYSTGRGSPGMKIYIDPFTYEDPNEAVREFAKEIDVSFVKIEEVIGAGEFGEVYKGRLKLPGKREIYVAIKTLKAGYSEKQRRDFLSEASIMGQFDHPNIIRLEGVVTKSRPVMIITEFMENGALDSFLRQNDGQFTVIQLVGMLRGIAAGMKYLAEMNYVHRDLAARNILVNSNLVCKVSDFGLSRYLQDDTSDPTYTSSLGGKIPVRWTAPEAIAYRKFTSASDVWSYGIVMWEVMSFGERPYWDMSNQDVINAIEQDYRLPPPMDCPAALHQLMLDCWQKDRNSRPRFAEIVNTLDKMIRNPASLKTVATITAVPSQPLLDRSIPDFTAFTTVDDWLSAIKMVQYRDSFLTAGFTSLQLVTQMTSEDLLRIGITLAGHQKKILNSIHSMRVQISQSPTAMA
Experimental: as §1

TTBK2(h) = TTBK2(h) (Homo sapiens, UniProt Q6IQ55)
Sequence of TTBK2(h) (Q6IQ55 whole entry): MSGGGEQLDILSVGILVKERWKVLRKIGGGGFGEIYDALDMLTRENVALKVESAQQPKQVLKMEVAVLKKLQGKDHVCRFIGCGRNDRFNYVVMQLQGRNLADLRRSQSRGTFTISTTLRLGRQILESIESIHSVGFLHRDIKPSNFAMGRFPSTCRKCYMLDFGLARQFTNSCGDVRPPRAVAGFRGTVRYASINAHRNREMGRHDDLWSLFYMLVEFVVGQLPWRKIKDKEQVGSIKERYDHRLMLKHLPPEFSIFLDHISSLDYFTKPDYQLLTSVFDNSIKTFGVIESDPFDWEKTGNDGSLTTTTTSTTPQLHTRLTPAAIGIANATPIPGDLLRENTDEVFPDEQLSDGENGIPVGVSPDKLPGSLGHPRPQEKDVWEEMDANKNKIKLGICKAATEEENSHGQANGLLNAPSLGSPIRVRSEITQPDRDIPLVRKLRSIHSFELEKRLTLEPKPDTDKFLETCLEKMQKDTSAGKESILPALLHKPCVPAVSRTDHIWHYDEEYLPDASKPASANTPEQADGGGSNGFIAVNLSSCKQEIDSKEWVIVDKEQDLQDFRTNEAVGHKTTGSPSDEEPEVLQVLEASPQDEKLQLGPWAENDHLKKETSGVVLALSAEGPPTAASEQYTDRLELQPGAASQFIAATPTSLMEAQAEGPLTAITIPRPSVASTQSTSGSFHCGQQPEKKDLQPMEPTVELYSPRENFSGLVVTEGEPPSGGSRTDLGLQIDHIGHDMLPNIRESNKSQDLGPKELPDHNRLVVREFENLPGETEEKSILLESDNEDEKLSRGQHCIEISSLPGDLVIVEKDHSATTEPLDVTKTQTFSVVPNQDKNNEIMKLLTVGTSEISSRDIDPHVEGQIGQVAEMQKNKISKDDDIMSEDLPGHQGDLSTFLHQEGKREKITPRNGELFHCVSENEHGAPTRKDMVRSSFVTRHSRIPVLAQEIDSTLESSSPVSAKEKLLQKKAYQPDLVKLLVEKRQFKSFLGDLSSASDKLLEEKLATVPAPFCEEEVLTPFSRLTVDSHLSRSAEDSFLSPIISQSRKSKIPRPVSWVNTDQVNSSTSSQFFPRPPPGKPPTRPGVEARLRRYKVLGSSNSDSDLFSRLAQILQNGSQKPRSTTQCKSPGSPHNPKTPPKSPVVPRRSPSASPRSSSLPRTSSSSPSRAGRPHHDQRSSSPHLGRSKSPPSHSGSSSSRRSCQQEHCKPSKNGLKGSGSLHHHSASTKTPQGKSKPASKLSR
Experimental: as §1

CHK1(h) = target: T5, CHK1(h) (Homo sapiens, UniProt O14757)
T5 construct: gene CHEK1
T5 sequence (O14757 1-476): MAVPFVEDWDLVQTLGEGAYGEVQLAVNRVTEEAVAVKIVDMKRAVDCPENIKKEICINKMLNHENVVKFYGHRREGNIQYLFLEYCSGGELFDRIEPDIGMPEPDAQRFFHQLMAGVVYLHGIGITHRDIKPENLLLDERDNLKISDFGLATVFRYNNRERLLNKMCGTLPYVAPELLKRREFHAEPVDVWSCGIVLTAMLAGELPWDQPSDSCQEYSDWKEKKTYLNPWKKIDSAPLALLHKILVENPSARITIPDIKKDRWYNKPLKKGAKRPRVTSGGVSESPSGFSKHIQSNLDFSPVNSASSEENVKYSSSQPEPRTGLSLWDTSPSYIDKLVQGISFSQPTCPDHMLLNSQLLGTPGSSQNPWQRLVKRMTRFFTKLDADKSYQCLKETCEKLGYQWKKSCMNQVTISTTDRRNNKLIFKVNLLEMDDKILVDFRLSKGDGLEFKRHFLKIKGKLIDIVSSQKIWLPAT
Experimental: as §1

[1] = read-out: Residual activity (%) Spautin-1 5aa
[2] = read-out: Residual activity (%) 5as
[3] = read-out: Residual activity (%) 5at
[4] = read-out: Residual activity (%) 5ay

Compound: Fc1ccc(CNc2ncnc3ccc(F)cc23)cc1 [5aa, 6-Fluoro-N-(4-fluorobenzyl)-4-Quinazolinamine]
- remaining activity at 10 µM (PKCδ(h); [1]): 81%
- remaining activity at 10 µM (CK2α2(h); [1]): 101%
- remaining activity at 10 µM (CaMKIV(h); [1]): 81%
- remaining activity at 10 µM (EphB1(h); [1]): 84%
- remaining activity at 10 µM (TTBK2(h); [1]): 117%
- remaining activity at 10 µM (CHK1(h); [1]): 80%

Compound: Fc1ccc(CCNc2ncnc3ccc(F)cc23)cc1 [5as, 6-Fluoro-N-[2-(4-Fluorophenyl)Ethyl]-4-Quinazolinamine]
- remaining activity at 10 µM (PKCδ(h); [2]): 97%
- remaining activity at 10 µM (CK2α2(h); [2]): 95%
- remaining activity at 10 µM (CaMKIV(h); [2]): 75%
- remaining activity at 10 µM (EphB1(h); [2]): 90%
- remaining activity at 10 µM (TTBK2(h); [2]): 107%
- remaining activity at 10 µM (CHK1(h); [2]): 69%

Compound: Fc1ccc2ncnc(NCCc3ccc(Cl)cc3)c2c1 [5at, N-[2-(4-Chlorophenyl)Ethyl]-6-Fluoro-4-Quinazolinamine]
- remaining activity at 10 µM (PKCδ(h); [3]): 88%
- remaining activity at 10 µM (CK2α2(h); [3]): 86%
- remaining activity at 10 µM (CaMKIV(h); [3]): 81%
- remaining activity at 10 µM (EphB1(h); [3]): 95%
- remaining activity at 10 µM (TTBK2(h); [3]): 111%
- remaining activity at 10 µM (CHK1(h); [3]): 73%

Compound: COc1ccc2ncnc(Nc3cccc(F)c3)c2c1 [5ay, N-(3-Fluorophenyl)-6-Methoxy-4-Quinazolinamine]
- remaining activity at 10 µM (PKCδ(h); [4]): 75%
- remaining activity at 10 µM (CK2α2(h); [4]): 83%
- remaining activity at 10 µM (CaMKIV(h); [4]): 68%
- remaining activity at 10 µM (EphB1(h); [4]): 88%
- remaining activity at 10 µM (TTBK2(h); [4]): 114%
- remaining activity at 10 µM (CHK1(h); [4]): 76%
